The text below walks through data of patent publication US9096592B2, “Bicyclic aza heterocycles, and use thereof” (BAYER INTELLECTUAL PROPERTY GMBH, priority 2010, dated 2015).

The assay relates to aorta rings. The assay is described as follows: Vasorelaxant action in vitro (phenylephrine-contracted rabbit aorta rings, organ bath). The following applies: Oryctolagus cuniculus; concentration needed to reduce the phenylephrine contraction of rabbit aorta rings by 50%. The procedure: B-1. Vasorelaxant Action In Vitro
Rabbits are stunned by a blow to the neck and exsanguinated. The aorta is removed, freed from adhering tissue and divided into rings of width 1.5 mm, which are placed individually under prestress into 5 ml organ baths with carbogen-sparged Krebs-Henseleit solution at 37° C. having the following composition (each mM): sodium chloride 119; potassium chloride: 4.8; calcium chloride dihydrate: 1; magnesium sulfate heptahydrate: 1.4; potassium dihydrogenphosphate: 1.2; sodium hydrogencarbonate: 25; glucose: 10. The contractile force is determined with Statham UC2 cells, amplified and digitalized using A/D transducers (DAS-1802 HC, Keithley Instruments Munich), and recorded in parallel on linear recorders. To obtain a contraction, phenylephrine is added to the bath cumulatively in increasing concentration. After several control cycles, the substance to be studied is added in increasing dosage each time in every further run, and the magnitude of the contraction is compared with the magnitude of the contraction attained in the last preceding run. This is used to calculate the concentration needed to reduce the magnitude of the control value by 50% (IC50 value). The standard administration volume is 5 μl; the DMSO content in the bath solution corresponds to 0.1%.

Structures can show the parent of a compound that is named as a salt.

With `CC(C)(O)Cn1c(=O)[nH]c2nc(-c3nn(Cc4ccccc4F)c4ncccc34)nc(N)c21` [Example 2, 6-Amino-2-[1-(2-fluorobenzyl)-1H-pyrazolo[3,4-b]pyridin-3-yl]-7-(2-hydroxy-2-methylpropyl)-7,9-dihydro-8H-purin-8-one], it took 49 nM to reach half-maximal inhibition (IC50).

On to `Nc1nc(-c2nn(Cc3ccccc3F)c3ncccc23)nc2cccc(Cl)c12` [Example 7, 5-Chloro-2-[1-(2-fluorobenzyl)-1H-pyrazolo[3,4-b]pyridin-3-yl]quinazolin-4-amine], for which half-maximal inhibition (IC50) required 1090 nM.

Take `Nc1nc(-c2nn(Cc3ccccc3F)c3ncccc23)nc2sccc12` [Example 12, 2-[1-(2-Fluorobenzyl)-1H-pyrazolo[3,4-b]pyridin-3-yl]thieno[2,3-d]pyrimidin-4-amine]: the IC50 (in general, the concentration that gives 50% inhibition) was determined as 284 nM.

For `Cc1nsc2nc(-c3nn(Cc4ccccc4F)c4ncccc34)nc(N)c12` [Example 13, 6-[1-(2-Fluorobenzyl)-1H-pyrazolo[3,4-b]pyridin-3-yl]-3-methyl[1,2]thiazolo[5,4-d]pyrimidin-4-amine], inhibition was half-maximal at 246 nM (IC50).

`Nc1nc(-c2nn(Cc3ccccc3F)c3ncccc23)nc2onc(C(F)(F)F)c12` [Example 15, 6-[1-(2-Fluorobenzyl)-1H-pyrazolo[3,4-b]pyridin-3-yl]-3-(trifluoromethyl)[1,2]oxazolo[5,4-d]pyrimidin-4-amine] had an IC50 of 730 nM. This IC50 is about 3-fold higher than that of the compound before.

Regarding `Nc1nc(-c2nn(Cc3ccccc3F)c3ncccc23)nc2[nH]nc(OCCO)c12` [Example 21, 2-({4-Amino-6-[1-(2-fluorobenzyl)-1H-pyrazolo[3,4-b]pyridin-3-yl]-1H-pyrazolo[3,4-d]pyrimidin-3-yl}oxy)ethanol], the IC50 stood at 233 nM.

Compound `CC1=Nc2c(N)nc(-c3nn(Cc4ccccc4F)c4ncccc34)nc2NCC1` [Example 23, 2-[1-(2-Fluorobenzyl)-1H-pyrazolo[3,4-b]pyridin-3-yl]-6-methyl-8,9-dihydro-7H-pyrimido[4,5-b][1,4]diazepin-4-amine] showed an IC50 of 197 nM.

The compound `Nc1nc(-c2nn(Cc3ccccc3F)c3ncccc23)nc2[nH]c(=S)[nH]c12` [Example 28, 6-Amino-2-[1-(2-fluorobenzyl)-1H-pyrazolo[3,4-b]pyridin-3-yl]-7,9-dihydro-8H-purine-8-thione] showed an IC50 of 800 nM.

`CSc1nc2c(N)nc(-c3nn(Cc4ccccc4F)c4ncccc34)nc2[nH]1` [Example 29, 2-[1-(2-Fluorobenzyl)-1H-pyrazolo[3,4-b]pyridin-3-yl]-8-(methylsulfanyl)-7H-purin-6-amine] registered an IC50 of 31 nM. Compared with the last compound, the IC50 is about 26-fold lower.

In turn, `Nc1nc(-c2nn(Cc3ccccc3F)c3ncccc23)nc2[nH]c(=O)n(CC(F)(F)F)c12` [Example 44, 6-Amino-2-[1-(2-fluorobenzyl)-1H-pyrazolo[3,4-b]pyridin-3-yl]-7-(2,2,2-trifluoroethyl)-7,9-dihydro-8H-purin-8-one] showed an IC50 of 83 nM.

Consider `O=c1[nH]c2nc(-c3nn(Cc4ccccc4F)c4ncccc34)ncc2n1CC(F)(F)F` [Example 45, 2-[1-(2-Fluorobenzyl)-1H-pyrazolo[3,4-b]pyridin-3-yl]-7-(2,2,2-trifluoroethyl)-7,9-dihydro-8H-purin-8-one], for which the concentration for half-maximal inhibition (IC50) worked out at 41 nM.

`Nc1nc(-c2nn(Cc3ccccc3F)c3ncccc23)nc2[nH]c(=O)c(C(F)(F)F)nc12` [Example 50, 4-Amino-2-[1-(2-fluorobenzyl)-1H-pyrazolo[3,4-b]pyridin-3-yl]-6-(trifluoromethyl)pteridin-7(8H)-one] registered an IC50 of 1390 nM.

Regarding `Nc1nc(-c2nn(Cc3ccccc3F)c3ncccc23)nc2nccnc12` [Example 52, 2-[1-(2-Fluorobenzyl)-1H-pyrazolo[3,4-b]pyridin-3-yl]pteridin-4-amine], the IC50 was determined as 126 nM.

`Nc1nc(-c2nn(Cc3ccccc3F)c3ncccc23)nc2[nH]nnc12` [Example 53, 5-[1-(2-Fluorobenzyl)-1H-pyrazolo[3,4-b]pyridin-3-yl]-3H-[1,2,3]triazolo[4,5-d]pyrimidin-7-amine] showed an IC50 of 424 nM.

In turn, `Nc1nc(-c2nn(Cc3ccccc3F)c3ncccc23)nc2nsnc12` [Example 57, 5-[1-(2-Fluorobenzyl)-1H-pyrazolo[3,4-b]pyridin-3-yl][1,2,5]thiadiazolo[3,4-d]pyrimidin-7-amine] had an IC50 of 39 nM.

Turning to `Nc1nc(-c2nn(Cc3ccccc3F)c3ncccc23)nc2ncn(CC(F)(F)F)c12` [Example 60, 2-[1-(2-Fluorobenzyl)-1H-pyrazolo[3,4-b]pyridin-3-yl]-7-(2,2,2-trifluoroethyl)-7H-purin-6-amine], the concentration for half-maximal inhibition (IC50) was 199 nM. Compared with the last compound, the IC50 is about 5.1-fold higher.

The compound `Nc1nc(-c2nn(Cc3ccccc3F)c3ncccc23)nc2nc(C(F)(F)F)n(CC(F)(F)F)c12` [Example 61, 2-[1-(2-Fluorobenzyl)-1H-pyrazolo[3,4-b]pyridin-3-yl]-7-(2,2,2-trifluoroethyl)-8-(trifluoromethyl)-7H-purin-6-amine] showed an IC50 of 759 nM.

In turn, `Nc1nc(-c2nn(Cc3ccccc3F)c3ncc(F)cc23)nc2[nH]c(=O)n(CC(F)(F)F)c12` [Example 62, 6-Amino-2-[5-fluoro-1-(2-fluorobenzyl)-1H-pyrazolo[3,4-b]pyridin-3-yl]-7-(2,2,2-trifluoroethyl)-7,9-dihydro-8H-purin-8-one] had an IC50 of 114 nM.

The compound `COC(=O)N1CCNc2nc(-c3nn(Cc4ccccc4F)c4ncccc34)ccc21` [Example 63, Methyl 6-[1-(2-fluorobenzyl)-1H-pyrazolo[3,4-b]pyridin-3-yl]-3,4-dihydropyrido[2,3-b]pyrazine-1(2H)-carboxylate] gave an IC50 of 139 nM. The IC50 values of the last two compounds are within 1.5-fold of each other.

Turning to `O=c1[nH]c2ccc(-c3nn(Cc4ccccc4F)c4ncccc34)nc2[nH]1` [Example 71, 5-[1-(2-Fluorobenzyl)-1H-pyrazolo[3,4-b]pyridin-3-yl]-1,3-dihydro-2H-imidazo[4,5-b]pyridin-2-one], inhibition was half-maximal at 86 nM (IC50).

Turning to `Fc1ccccc1Cn1nc(-c2ncc3ccccc3n2)c2cccnc21` [Example 74, 2-[1-(2-Fluorobenzyl)-1H-pyrazolo[3,4-b]pyridin-3-yl]quinazoline], it took 713 nM to reach half-maximal inhibition (IC50). Against the preceding compound, the IC50 is about 8.3-fold higher.

`CCOC(=O)N1CCNc2nc(-c3nn(Cc4ccccc4F)c4ncccc34)nc(N)c21` [Example 76, Ethyl 4-amino-2-[1-(2-fluorobenzyl)-1H-pyrazolo[3,4-b]pyridin-3-yl]-7,8-dihydropteridine-5(6H)-carboxylate formate] showed an IC50 of 23 nM.

The compound `CC(C)c1nc2c(N)nc(-c3nn(Cc4ccccc4F)c4ncccc34)nc2[nH]c1=O` [Example 83, 4-Amino-2-[1-(2-fluorobenzyl)-1H-pyrazolo[3,4-b]pyridin-3-yl]-6-isopropylpteridin-7(8H)-one] had an IC50 of 27 nM.

For the compound `Nc1nc(-c2nn(Cc3ccccc3F)c3ncccc23)nc2ccncc12` [Example 84, 2-[1-(2-Fluorobenzyl)-1H-pyrazolo[3,4-b]pyridin-3-yl]pyrido[4,3-d]pyrimidin-4-amine], the IC50 was determined as 155 nM.

For the compound `Nc1nc(-c2nn(Cc3ccccc3F)c3ncccc23)nc2cccnc12` [Example 85, 2-[1-(2-Fluorobenzyl)-1H-pyrazolo[3,4-b]pyridin-3-yl]pyrido[3,2-d]pyrimidin-4-amine], the IC50 came out at 164 nM.

For `Cn1c(=O)[nH]c2nc(-n3nc(Cc4ccccc4F)c4ncccc43)nc(N)c21` [Example 89, 6-Amino-2-[3-(2-fluorobenzyl)-1H-pyrazolo[4,3-b]pyridin-1-yl]-7-methyl-7,9-dihydro-8H-purin-8-one], the IC50 was determined as 146 nM.
